These results are taken from ChEMBL document CHEMBL5728694, “Inhibitors of hepatitis C virus replication” (2021).

pEC50: −log10 of the molar value.

The test in a line: Measuring Compound Inhibitory Potency: Measurement of inhibition by compounds was performed using the HCV replicon system. Several different replicons encoding different HCV genotypes or mutations were used. In addition, potency measurements were made using different formats of the replicon assay, including different ways of measurements and different plating formats. See Jan M. Vrolijk et al., A replicons-based bioassay for the measurement of interferons in patients with chronic hepatitis C, 110 J. VIROLOGICAL METHODS 201 (2003); Steven S. Carroll et al., Inhibition of Hepatitis C Virus RNA Replication by 2′-Modified Nucleoside Analogs, 278(14) J. BIOLOGICAL CHEMISTRY 11979 (2003). However, the underlying principles are common to all of these determinations, and are outlined below.Stable neomycin phosphotransferase encoding replicon-harboring cell lines were used, so all cell lines were maintained under G418 selection prior to the assay. In some cases, the cell lines encoded a luciferase:Neor fusion and could be assayed either directly by determination of RNA copy number, or indirectly through measurement of the luciferase activity.To initiate an assay, replicon cells were plated in the presence of a dilution series of test compound in the absence of G418. Typically, the assays were performed in a 96-well plate format for manual operation, or a 384-well plate in an automated assay. […]. (A replicon is a self-replicating genome or part of one, used to study replication in cells.)

Usually pEC50 stands for the EC50 on a negative log10 scale, so that one unit is a factor of ten.

For `COC(=O)N[C@H](C(=O)N1CCC[C@H]1c1ncc(-c2ccc3oc(-c4ccc(-c5cnc([C@@H]6CCCN6C(=O)[C@@H](NC(=O)OC)C(C)C)[nH]5)c(F)c4)cc3c2)[nH]1)C(C)C`, the pEC50 is 11.40.
